Laboratory results published in US20060206946A1, “Method of disrupting heme transport in nematodes and of modelling and evaluating eukaryotic heme transport” (priority 2005, published 2006).

What was measured:
C. elegans [1] = assay: Metabolic labeling with 59Fe or 59Fe-heme, heme isolation and TLC; assay type: in vivo, Caenorhabditis elegans; settings: for radiolabel signal in heme extracted from labeled worms: 9.4×10^6 DPM, mCeHR
Experimental: (E) Metabolic labeling in C. elegans cultured in the presence of heme. Synchronized L1 larvae were grown in mCeHR medium containing either ^59Fe or ^59Fe-heme (9.4×10^6 DPM) and the worms harvested as gravid adults. Heme was extracted and concentrated, and then resolved by TLC followed by detection with a PhosphorImager (top panel). Lane 5, ^59Fe-heme control. Radiolabeled bands were quantified in a gamma counter and CPM normalized to total protein (bottom panel). To correct for non-specific binding of the radiolabeled Fe and heme, parallel experiments were conducted in the presence of 1 mM sodium azide (samples 1 and 3).
Preparation of hemin, hemin analogs and [^59Fe]Heme. Fresh stock solutions of hemin or hemin analogs (Frontier Sciences, Logan, Utah) were prepared immediately prior to use by dissolving required amounts in 0.3 M ammonium hydroxide. The pH of the stock solution was adjusted to pH 8.0 with 6 N HCl, and filter sterilized ([…]). The upper limit of free iron was estimated to be 3.8 nM/1 μM of hemin chloride by inductively coupled plasma-mass spectrometry (ICP-MS) analysis. For synthesis of ^59Fe-heme, 50 ml of glacial acetic acid was stirred under a constant flow of N2 at 60° C. followed by addition of 12 mg of protoporphyrin IX in pyridine for 30 min. To this mixture, 0.85 μCi of FeCl3 (specific activity 35.77 mCi/mg, Perkin Elmer, Boston, Mass.) was stirred in for an additional 3 h. Heme was extracted from this mixture with ethyl acetate followed by extensive washes with 4 N HCl and distilled water to remove unincorporated protoporphyrin IX and iron. The heme thus obtained was concentrated by evaporation of the ethyl acetate using a RotaVapor and frozen at −20° C. until further use. Total amount of ^59Fe-heme synthesized by this method was measured using a Packard Gamma Counter (˜21% efficiency). The purity of heme was determined by thin layer chromatography using silica gel 60 matrix in an NH4OH-saturated chamber with 2,6-lutidine/water solvent. We estimated the specific activity of ^59Fe-heme synthesized to be ˜2.8×10^6 DPM/nmol.
Metabolic Labeling, Heme Isolation and Thin Layer Chromatography. Equal numbers of L1 worms were grown at 20° C. in mCeHR medium with 20 μM hemin and supplemented with 9.4×10^6 DPM of either ^59Fe-heme or ^59FeCl3. Radiolabeled adult worms were harvested by first incubating them in M9 buffer for 30 min to empty the gut contents. […] It was experimentally determined that this concentration of NaN3 was not lethal to worms. […] Plates were exposed to a PhosphorImager and the radiolabel signal corresponding to heme was excised and analyzed using a gamma counter. Counts (DPM) obtained were normalized for protein as determined by the bicinchoninic acid method (Sigma) performed on pre-aliquoted samples of intact worms. […]

C. elegans [2] = assay type: in vivo, Caenorhabditis elegans; settings: in vivo
Experimental: (C) Fluorescent metabolic labeling of worms with either 40 μM hemin (images 1, 4) or 40 μM ZnMP/4 μM hemin (images 2, 3, 5, 6) for 3 h followed by confocal microscopy with a 546 laser (images 1-3) and DIC optics (images 4-6). Arrowheads indicate ZnMP fluorescence accumulation within intestinal cells and developing embryos. For clarity, the boxed image in 2 is magnified in images 3 and 6. (Bar=100 μm).
(D) Worms were incubated with 40 μM ZnMP/4 μM hemin for 16 h followed by a chase with 40 μM hemin. Worms were analyzed by epifluorescence microscopy (TRITC channel) and DIC optics. Experiments were performed either in the absence (images 1-4) or presence (images 5-8) of NaN3 during the chase periods to test for the non-specific loss of ZnMP fluorescence. Photomicrograph 4 is shown at a lower power to depict the complete loss of ZnMP fluorescence. (Bar=100 μm). For (C) and (D), four separate experiments were performed with a minimum of 50 worms per data point per experiment. The data are representative for >90% of worms analyzed.
Because of the nature of the growth curve, we reasoned that heme homeostatis in C. elegans may be regulated in accordance with organismic needs and metabolic demands. […]
Pulse-Chase Analysis. […] At timed intervals, aliquots of worms were removed into the appropriate medium containing 10 mM NaN3 mounted on a slide and immediately analyzed with a 543 He/Ne laser on a Zeiss 410 confocal microscope, or with a Peltier-cooled Retiga 1300 12-bit CCD camera fitted on to a Leica DMIRE2 autofluorescence/DIC microscope. Images were further analyzed with SIMPLEPCI v5.2 Software (Compix, Inc.). […] No loss of fluorescence was observed when labeling experiments were performed in parallel in the presence of 1 mM NaN3 during the chase period and when worms were incubated in medium without hemin. To account for background autouluorescence in C. elegans, the sensor gain of the CCD camera or the laser was set to subtract any fluorescence obtained from control worms incubated in the presence of 40 μM hemin.

[3] = test system: C. elegans wild-type N2 strain; assay: Worm culture and growth assay in axenic CeHR/mCeHR liquid medium; assay type: in vivo; settings: for support of worm growth as heme source: in vivo
Experimental: (D) Biphasic response of C. elegans cultured in the presence of increasing amounts of hemin chloride (μM). Equal numbers of synchronized L1 larvae were grown in 24-well plates in mCeHR medium for 9 days and quantified (worms/μl) by microscopy. Each data point represents the mean±SD from three separate experiments performed in triplicate.
(A) Aerobic growth of C. elegans in mCeFIR medium with 20 μM hemin supplemented with either gallium protoporphyrin IX (GaPP) or gallium salts. Synchronized L1 larvae were grown for 9 days in 24-well plates and quantified (worms/μl) by microscopy. Each data point represents the mean from a single experiment, and each experiment was performed in triplicate. Inset depicts the GaPP analysis at lower concentrations for clarity.
(B) Effect of heme on the cytotoxicity of GaPP. Synchronized L1 larvae were inoculated in 24-well plates containing mCeHR medium with either 0, 2, 4, or 6 μM GaPP and increasing hemin (μM). The number of worms per μl was measured on day 9 and the data are presented as mean±SD.
FIG. 9 depicts worm utilization of heme-iron under iron deprivation. Equal numbers of synchronized L1 larvae were grown in the presence of 4, 20, and 100 μM hemin, either in basal mCeHR medium (set 1), or basal medium lacking exogenous iron (set 2), or as set 2 with 1 μM of the iron chelator ferrozine (set 3), or as set 3 with 486 μM ferrous ammonium sulfate (set 4). These values of ferrozine and iron were empirically determined by performing dose-response experiments and analyzing worm growth. The number of worms per μl was measured on day 9 and the data presented as mean±SD performed in triplicate. P<0.001 between sets 1 and 3.
To qualitatively and quantitatively determine the heme requirement of C. elegans, we assessed growth at various heme concentrations. Equal numbers of L1 larvae were inoculated in CeHR medium with either no cytochrome c and hemin, or with cytochrome c and increasing amounts of hemin (FIG. 4A). The effect of hemin became apparent within 48 hours and by 9 days, the heme-deplete worms were severely growth retarded at the L1/L2 stages. […] However, this stimulatory effect of heme was toxic to worms grown at heme concentrations >750 μM. To quantitatively assess the effect of heme on worms, we counted the number of live worms grown under different concentration of heme using DIC microscopy. […] On the basis of this association between heme and the growth and reproduction of C. elegans, we conclude that the biphasic nature of heme is likely due to the need for heme under heme-deprived conditions to perform essential metabolic functions, and the lethality of heme at high concentrations can be attributed to its cytotoxic activity.
Worm Culture and Growth Assays. Free-living worms were cultured in CeHR axenic liquid medium (Dr. Eric Clegg, Personal Communication). […] CeHR medium was modified (henceforth called mCeHR) to eliminate all sources of exogenously added heme; basal growth medium comprised 20 μM hemin chloride (Frontier Scientific, Logan, Utah) and 150 μM of ferrous ammonium sulfate (Sigma Chemicals). Worm strains were grown in mCeHR medium under aerobic conditions in tissue culture flasks at 20° C. ˜3.7×10^6 worms were routinely obtained after 3.5 to 4 days in a T75 flask with 30 ml basal medium from an initial inoculum of −1.5×10^5 worms. For initial culturing of worms in axenic media, three generations of worms were sequentially bleached (1.1% bleach/0.55 M NaOH) to eliminate any contaminating bacterial carryover from agar plates. In all dose-response experiments, worms were growth synchronized by treating the gravid hermaphrodite worms with bleach to dissolve adult worms. The eggs, resistant to bleach, were liberated from the carcasses and extensively washed with M9 buffer followed by overnight hatching in M9 buffer to synchronize growth. By harvesting at appropriate time intervals, synchronous larval stages and adult staged worms were collected for experimental manipulations. […]

[N-]=[N+]=[N-] [NaN3, sodium azide]
lethality to worms (C. elegans [1]; 1 mM NaN3): not lethal

CCC1=C(C)c2cc3[n-]c(cc4[n-]c(cc5nc(cc1n2)C(C)=C5CC)c(C)c4CCC(=O)O)c(CCC(=O)O)c3C.[Zn+2] [ZnMP, zinc mesoporphyrin IX]
time to discernable fluorescence signal in embryos (C. elegans [2]): ≤ 130 min

C=CC1=C(C)c2cc3[n-]c(cc4nc(cc5[n-]c(cc1n2)c(C)c5C=C)C(C)=C4CCC(=O)O)c(CCC(=O)O)c3C.[59Fe+2] [^59Fe-heme]
radiolabel signal in heme extracted from labeled worms (C. elegans [1]): specific signal | 59Fe-heme uptake in metabolically inhibited worms (C. elegans [1]; in the presence of NaN3): negligible

[Cl][59Fe]([Cl])[Cl] [^59Fe]
radiolabel signal in heme extracted from labeled worms (C. elegans [1]): no radiolabeled signal

O=S(=O)([O-])c1ccc(-c2nnc(-c3ccccn3)nc2-c2ccc(S(=O)(=O)[O-])cc2)cc1.[Na+].[Na+] [ferrozine]
effect on diminution in worm growth under iron deprivation ([3]; 1 μM ferrozine, medium lacking exogenous iron): further accentuated

Cytochrome c: hemoprotein used as heme source for worm growth
support of worm growth as heme source [3]: sustained worm growth

hemoglobin: hemoprotein used as heme source for worm growth
support of worm growth as heme source [3]: sustained worm growth
